# Source: ChEMBL document CHEMBL3808371, “Design, synthesis and biological evaluation of diaziridinyl quinone isoxazole hybrids” (Eur J Med Chem, 2016)
# The source made the active and inactive calls. The calls are words filed in the database; no cut-off is given here.
# Legend:
# [1] = test system: A549; test: Cytotoxicity against human A549 cells after 72 hrs by XTT assay; type: functional, cell-based; details: A549, 72 h
# [2] = Cytotoxicity against human PC3 cells after 72 hrs by XTT assay; type: functional, cell-based; details: PC-3, 72 h
# [3] = test system: Staphylococcus aureus; test: Antimicrobial activity against Staphylococcus aureus MTCC 96 after 24 hrs by well diffusion method; type: functional; details: MTCC 96, 24 h
# [4] = test system: Bacillus subtilis; test: Antimicrobial activity against Bacillus subtilis MTCC 121 after 24 hrs by well diffusion method; type: functional; details: MTCC 121, 24 h
# [5] = test system: Staphylococcus aureus; test: Antimicrobial activity against Staphylococcus aureus MLS16 MTCC 2940 after 24 hrs by well diffusion method; type: functional; details: MLS16 MTCC 2940, 24 h
# [6] = test system: Micrococcus luteus; test: Antimicrobial activity against Micrococcus luteus MTCC 2470 after 24 hrs by well diffusion method; type: functional; details: MTCC 2470, 24 h
# [7] = test system: Raoultella planticola; test: Antimicrobial activity against Klebsiella planticola MTCC 530 after 24 hrs by well diffusion method; type: functional; details: MTCC 530, 24 h
# [8] = test system: Escherichia coli; test: Antimicrobial activity against Escherichia coli MTCC 739 after 24 hrs by well diffusion method; type: functional; details: MTCC 739, 24 h
# [9] = test system: Pseudomonas aeruginosa; test: Antimicrobial activity against Pseudomonas aeruginosa MTCC 2453 after 24 hrs by well diffusion method; type: functional; details: MTCC 2453, 24 h
# [10] = test system: Candida albicans; test: Antimicrobial activity against Candida albicans MTCC 3017 after 24 hrs by well diffusion method; type: functional
# [11] = test system: Bacillus subtilis; test: Bactericidal activity against Bacillus subtilis MTCC 121 after 24 hrs by serial dilution method; type: functional; details: MTCC 121, 24 h
# [12] = test system: Staphylococcus aureus; test: Bactericidal activity against Staphylococcus aureus MTCC 96 after 24 hrs by serial dilution method; type: functional; details: MTCC 96, 24 h
# [13] = test system: Staphylococcus aureus; test: Bactericidal activity against Staphylococcus aureus MLS16 MTCC 2940 after 24 hrs by serial dilution method; type: functional; details: MLS16 MTCC 2940, 24 h
# [14] = test system: Micrococcus luteus; test: Bactericidal activity against Micrococcus luteus MTCC 2470 after 24 hrs by serial dilution method; type: functional; details: MTCC 2470, 24 h
# [15] = test system: Raoultella planticola; test: Bactericidal activity against Klebsiella planticola MTCC 530 after 24 hrs by serial dilution method; type: functional; details: MTCC 530, 24 h
# [16] = test system: Bacillus subtilis; test: Antibiofilm activity against Bacillus subtilis MTCC 121 after 24 hrs by crystal violet staining based assay; type: functional, organism-based; details: MTCC 121, 24 h
# [17] = test system: Micrococcus luteus; test: Antibiofilm activity against Micrococcus luteus MTCC 2470 after 24 hrs by crystal violet staining based assay; type: functional, organism-based; details: MTCC 2470, 24 h
# [18] = test system: Staphylococcus aureus; test: Antibiofilm activity against Staphylococcus aureus MTCC 96 after 24 hrs by crystal violet staining based assay; type: functional, organism-based; details: MTCC 96, 24 h
# [19] = test system: Raoultella planticola; test: Antibiofilm activity against Klebsiella planticola MTCC 530 after 24 hrs by crystal violet staining based assay; type: functional, organism-based; details: MTCC 530, 24 h
# [20] = test system: Staphylococcus aureus; test: Antibiofilm activity against Staphylococcus aureus MLS16 MTCC 2940 after 24 hrs by crystal violet staining based assay; type: functional, organism-based; details: MLS16 MTCC 2940, 24 h
smiles,measurement,setting,value
COc1ccc(OC)c(-c2cc(-c3ccc(C(=O)N4CCCCC4)s3)on2)c1,IC50,[1],> 30 µM
same,IC50,[2],> 30 µM
O=C1C=CC(=O)C(c2cc(-c3ccc(C(=O)N4CCCC4)s3)on2)=C1,IC50,[1],> 30 µM
same,IC50,[2],< 30 µM
CCCN(C)C(=O)c1ccc(-c2cc(C3=CC(=O)C=CC3=O)no2)s1,IC50,[1],> 30 µM
same,IC50,[2],< 30 µM
O=C1C=C(N2CC2)C(=O)C(c2cc(-c3ccc(C(=O)N4CCC(C(F)(F)F)CC4)s3)on2)=C1N1CC1,IC50,[1],3.7 µM
same,IC50,[2],2 µM
same,MIC,[3],> 125 µg/mL
same,MIC,[4],3.9 µg/mL
same,MIC,[5],> 125 µg/mL
same,MIC,[6],31.2 µg/mL
same,MIC,[7],> 125 µg/mL
same,MIC,[8],> 125 µg/mL
same,MIC,[9],> 125 µg/mL
same,MIC,"[10]; MTCC 3017, 24 h",31.2 µg/mL
same,MBC,[11],7.8 µg/mL
same,MBC,[12],> 125 µg/mL
same,MBC,[13],> 125 µg/mL
same,MBC,[14],62.5 µg/mL
same,MBC,[15],> 125 µg/mL
same,IC50,[16],2.1 µM
same,IC50,[17],16.2 µM
COc1ccc(OC)c(-c2cc(-c3ccc(C(=O)NCC4CC4)s3)on2)c1,IC50,[1],> 30 µM
same,IC50,[2],> 30 µM
CCN(CC)C(=O)c1ccc(-c2cc(C3=C(N4CC4)C(=O)C=C(N4CC4)C3=O)no2)s1,IC50,[1],0.9 µM
same,IC50,[2],0.5 µM
same,MIC,[3],7.8 µg/mL
same,MIC,[4],7.8 µg/mL
same,MIC,[5],7.8 µg/mL
same,MIC,[6],15.6 µg/mL
same,MIC,[7],15.6 µg/mL
same,MIC,[8],> 125 µg/mL
same,MIC,[9],> 125 µg/mL
same,MIC,"[10]; MTCC 3017, 24 h",15.6 µg/mL
same,MBC,[11],31.2 µg/mL
same,MBC,[12],15.6 µg/mL
same,MBC,[13],31.2 µg/mL
same,MBC,[14],62.5 µg/mL
same,MBC,[15],62.5 µg/mL
O=C1C=CC(=O)C(c2cc(-c3ccc(C(=O)NCC4CC4)s3)on2)=C1,IC50,[1],> 30 µM
same,IC50,[2],> 30 µM
COc1ccc(CN(C)C(=O)c2ccc(-c3cc(-c4cc(OC)ccc4OC)no3)s2)cc1,IC50,[1],> 30 µM
same,IC50,[2],> 30 µM
COc1ccc(OC)c(-c2cc(-c3ccc(C(=O)N4CCCC4)s3)on2)c1,IC50,[1],> 30 µM
same,IC50,[2],> 30 µM
CN(Cc1ccccc1)C(=O)c1ccc(-c2cc(C3=CC(=O)C=CC3=O)no2)s1,IC50,[1],> 30 µM
same,IC50,[2],11 µM
CCN(CC)C(=O)c1ccc(-c2cc(C3=CC(=O)C=CC3=O)no2)s1,IC50,[1],10 µM
same,IC50,[2],8.9 µM
COc1ccc(CN(C)C(=O)c2ccc(-c3cc(C4=CC(=O)C=CC4=O)no3)s2)cc1,IC50,[1],> 30 µM
same,IC50,[2],< 30 µM
CN(Cc1ccc(F)cc1)C(=O)c1ccc(-c2cc(C3=CC(=O)C=CC3=O)no2)s1,IC50,[1],> 30 µM
same,IC50,[2],> 30 µM
O=C1C=CC(=O)C(c2cc(-c3ccc(C(=O)N4CCCCC4)s3)on2)=C1,IC50,[1],> 30 µM
same,IC50,[2],> 30 µM
COc1ccc(OC)c(-c2cc(-c3ccc(C(=O)N(C)Cc4ccccc4)s3)on2)c1,IC50,[1],> 30 µM
same,IC50,[2],> 30 µM
COc1ccc(OC)c(-c2cc(-c3ccc(C(=O)N(C)C)s3)on2)c1,IC50,[1],> 30 µM
same,IC50,[2],> 30 µM
CN(C)C(=O)c1ccc(-c2cc(C3=CC(=O)C=CC3=O)no2)s1,IC50,[1],> 30 µM
same,IC50,[2],7.2 µM
CCN(CC)C(=O)c1ccc(-c2cc(-c3cc(OC)ccc3OC)no2)s1,IC50,[1],11 µM
same,IC50,[2],> 30 µM
O=C1C=CC(=O)C(c2cc(-c3ccc(C(=O)N4CCC(C(F)(F)F)CC4)s3)on2)=C1,IC50,[1],> 30 µM
same,IC50,[2],> 30 µM
COc1ccc(OC)c(-c2cc(-c3ccc(C(=O)NC4CC4)s3)on2)c1,IC50,[1],> 30 µM
same,IC50,[2],7.8 µM
O=C(O)c1cn(C2CC2)c2cc(N3CCNCC3)c(F)cc2c1=O [CIPROFLOXACIN],MIC,[3],0.9 µg/mL
same,MIC,[4],0.9 µg/mL
same,MIC,[5],0.9 µg/mL
same,MIC,[6],0.9 µg/mL
same,MIC,[7],0.9 µg/mL
same,MIC,[8],0.9 µg/mL
same,MIC,[9],0.9 µg/mL
same,MIC,[10],inactive
same,MBC,[11],1.9 µg/mL
same,MBC,[12],0.9 µg/mL
same,MBC,[13],1.9 µg/mL
same,MBC,[14],0.9 µg/mL
same,MBC,[15],1.9 µg/mL
same,IC50,[18],0.7 µM
same,IC50,[17],0.8 µM
same,IC50,[19],0.6 µM
CN(Cc1ccccc1)C(=O)c1ccc(-c2cc(C3=C(N4CC4)C(=O)C=C(N4CC4)C3=O)no2)s1,IC50,[1],7.3 µM
same,IC50,[2],1.2 µM
same,MIC,[3],31.2 µg/mL
same,MIC,[4],31.2 µg/mL
same,MIC,[5],62.5 µg/mL
same,MIC,[6],15.6 µg/mL
same,MIC,[7],> 125 µg/mL
same,MIC,[8],> 125 µg/mL
same,MIC,[9],> 125 µg/mL
same,MIC,"[10]; MTCC 3017, 24 h",> 125 µg/mL
same,MBC,[11],125 µg/mL
same,MBC,[12],62.5 µg/mL
same,MBC,[13],125 µg/mL
same,MBC,[14],62.5 µg/mL
same,MBC,[15],> 125 µg/mL
O=C1C=C(N2CC2)C(=O)C(c2cc(-c3ccc(C(=O)N4CCCC4)s3)on2)=C1N1CC1,IC50,[1],1.7 µM
same,IC50,[2],1 µM
same,MIC,[3],15.6 µg/mL
same,MIC,[4],7.8 µg/mL
same,MIC,[5],15.6 µg/mL
same,MIC,[6],31.2 µg/mL
same,MIC,[7],15.6 µg/mL
same,MIC,[8],> 125 µg/mL
same,MIC,[9],> 125 µg/mL
same,MIC,"[10]; MTCC 3017, 24 h",31.2 µg/mL
same,MBC,[11],15.6 µg/mL
same,MBC,[12],31.2 µg/mL
same,MBC,[13],31.2 µg/mL
same,MBC,[14],62.5 µg/mL
same,MBC,[15],31.2 µg/mL
CCCN(C)C(=O)c1ccc(-c2cc(-c3cc(OC)ccc3OC)no2)s1,IC50,[1],> 30 µM
same,IC50,[2],> 30 µM
CN(C)C(=O)c1ccc(-c2cc(C3=C(N4CC4)C(=O)C=C(N4CC4)C3=O)no2)s1,IC50,[1],1.5 µM
same,IC50,[2],> 30 µM
same,MIC,[3],15.6 µg/mL
same,MIC,[4],3.9 µg/mL
same,MIC,[5],15.6 µg/mL
same,MIC,[6],62.5 µg/mL
same,MIC,[7],7.8 µg/mL
same,MIC,[8],> 125 µg/mL
same,MIC,[9],> 125 µg/mL
same,MIC,"[10]; MTCC 3017, 24 h",15.6 µg/mL
same,MBC,[11],7.8 µg/mL
same,MBC,[12],31.2 µg/mL
same,MBC,[13],31.2 µg/mL
same,MBC,[14],125 µg/mL
same,MBC,[15],31.2 µg/mL
same,IC50,[16],2.2 µM
same,IC50,[18],9.8 µM
same,IC50,[20],10.1 µM
same,IC50,[17],38.9 µM
same,IC50,[19],6.1 µM
O=C1C=C(N2CC2)C(=O)C(c2cc(-c3ccc(C(=O)NCC4CC4)s3)on2)=C1N1CC1,IC50,[1],2.1 µM
same,IC50,[2],3.5 µM
same,MIC,[3],> 125 µg/mL
same,MIC,[4],15.6 µg/mL
same,MIC,[5],> 125 µg/mL
same,MIC,[6],> 125 µg/mL
same,MIC,[7],> 125 µg/mL
same,MIC,[8],> 125 µg/mL
same,MIC,[9],> 125 µg/mL
same,MIC,"[10]; MTCC 3017, 24 h",15.6 µg/mL
same,MBC,[11],31.2 µg/mL
same,MBC,[12],> 125 µg/mL
same,MBC,[13],> 125 µg/mL
same,MBC,[14],> 125 µg/mL
same,MBC,[15],> 125 µg/mL
same,IC50,[16],9.8 µM
COc1ccc(OC)c(-c2cc(-c3ccc(C(=O)N4CCOCC4)s3)on2)c1,IC50,[1],> 30 µM
same,IC50,[2],> 30 µM
COc1ccc(OC)c(-c2cc(-c3ccc(C(=O)N(C)Cc4ccc(F)cc4)s3)on2)c1,IC50,[1],> 30 µM
same,IC50,[2],> 30 µM
COc1ccc(OC)c(-c2cc(-c3ccc(C(=O)N4CCC(C(F)(F)F)CC4)s3)on2)c1,IC50,[1],> 30 µM
same,IC50,[2],> 30 µM
